From patent US10017514B2, “6,7-dihydropyrazolo[1,5-α]pyrazin-4(5H)-one compounds and their use as negative allosteric modulators of mGluR2 receptors” (Janssen Pharmaceutica NV, priority 2014, dated 2018)

Key:
human mGlu2 receptor = target: T1, human mGlu2 receptor (Homo sapiens, UniProt Q14416); test: [35S]GTPγS binding assay, mGluR2 negative allosteric modulation; assay type: biochemical; details: for Emax: maximal % inhibition relative to the control glutamate response (EC80 glutamate), read-out: GTPγS-hmGluR2 anGT Emax; for IC50: membranes from CHO cells transfected with human mGlu2 receptor, glutamate ~EC80 (60 μM), read-out: GTPγS-hmGluR2 anGT pIC50 (converted)
T1 construct: expressed in transfected cells; host or cells: CHO cells (membrane preparation)
T1 sequence (Q14416 19-872): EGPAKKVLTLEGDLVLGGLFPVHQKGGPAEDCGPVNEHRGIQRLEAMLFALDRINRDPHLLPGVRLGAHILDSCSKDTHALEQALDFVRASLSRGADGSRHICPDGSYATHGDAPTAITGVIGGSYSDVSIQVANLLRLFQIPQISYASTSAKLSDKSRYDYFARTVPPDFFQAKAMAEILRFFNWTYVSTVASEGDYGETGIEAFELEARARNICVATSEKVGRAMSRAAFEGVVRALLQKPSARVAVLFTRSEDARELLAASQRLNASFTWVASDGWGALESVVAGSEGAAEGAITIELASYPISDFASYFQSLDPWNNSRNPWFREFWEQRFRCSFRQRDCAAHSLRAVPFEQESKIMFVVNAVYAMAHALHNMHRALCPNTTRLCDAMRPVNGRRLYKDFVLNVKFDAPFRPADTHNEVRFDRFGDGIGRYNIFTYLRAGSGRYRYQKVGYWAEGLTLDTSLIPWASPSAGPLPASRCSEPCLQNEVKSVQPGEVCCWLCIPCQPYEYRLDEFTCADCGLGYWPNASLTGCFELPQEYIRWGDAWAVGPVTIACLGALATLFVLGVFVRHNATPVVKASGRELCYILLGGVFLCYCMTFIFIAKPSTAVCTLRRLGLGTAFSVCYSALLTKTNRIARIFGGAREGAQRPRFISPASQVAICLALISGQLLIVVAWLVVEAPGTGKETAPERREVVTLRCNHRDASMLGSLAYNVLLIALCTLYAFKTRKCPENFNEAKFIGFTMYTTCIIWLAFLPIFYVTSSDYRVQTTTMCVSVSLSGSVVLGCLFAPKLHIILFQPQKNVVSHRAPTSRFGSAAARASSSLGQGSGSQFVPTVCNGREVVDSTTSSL
Experimental: Total reaction volume was 200 μl. […] Membrane-bound radioactivity was counted in a Topcount.

rats = test: Reversal of the effect of the mGluR2 PAM JNJ-42153605-induced inhibition of scopolamine-induced hyperlocomotion; assay type: in vivo, rat; details: for ED50: Rattus norvegicus, rats, PO, 60 min pretreatment, JNJ-42153605 20 mg/kg i.v. + scopolamine 0.16 mg/kg i.v., criterion total distance >1500 cm in 30 min, read-out: SCOP JNJ-42153605 ED50
Experimental: Motor activity was measured in microprocessor-based motor activity arenas (closed gray PVC cylinders with a height of 39 cm and a diameter of 31 cm). Each arena was placed on an infrared LED (8×8 LEDs) lit box (white PVC squared box; 40×40 cm^2; height 12.5 cm. An infrared-sensitive tube camera and a white light source were mounted to the ceiling above the observation chamber to track the animal. […] Noldus, Wageningen, The Netherlands). The intensity of the light within the activity cages (measured in the centre at the level of the floor) ranged between 4 and 8 LUX. The rats were pretreated with test compound or vehicle at 60 min before the start of the activity recordings and placed into individual cages. […] WO2010/130424; Cid et al. J. Med.

[1] = historical series of solvent-pretreated control rats, first 30 min

## Cc1cncc(-c2cc(-c3cnn4c3C(=O)N(c3ccc(C(F)(F)F)c(C)c3)C[C@@H]4C)no2)c1 [Co. No. 16, (7S)-7-methyl-3-[5-(5-methyl-3-pyridyl)isoxazol-3-yl]-5-[3-methyl-4-(trifluoromethyl)phenyl]-6,7-dihydropyrazolo[1,5-a]pyrazin-4-one]
Human mGlu2 receptor
  Emax: 110%
  IC50: 21.4 nM
other
  melting point: 172.9 °C

## Cc1cc(N2C[C@H](C)n3ncc(-c4cc(-c5cccnc5)on4)c3C2=O)ccc1C(F)(F)F [Co. No. 15, (7S)-7-methyl-5-[3-methyl-4-(trifluoromethyl)phenyl]-3-[5-(3-pyridyl)isoxazol-3-yl]-6,7-dihydropyrazolo[1,5-a]pyrazin-4-one]
Human mGlu2 receptor
  Emax: 108%
  IC50: 5.5 nM
other
  melting point: 120.21 °C
rats
  ED50: > 0.63 mg/kg

## C[C@H]1CN(c2ccc(C(F)(F)F)c(Cl)c2)C(=O)c2c(-c3cc(-c4cccnc4)on3)cnn21 [Co. No. 11, (7S)-5-[3-chloro-4-(trifluoromethyl)phenyl]-7-methyl-3-[5-(3-pyridyl)isoxazol-3-yl]-6,7-dihydropyrazolo[1,5-a]pyrazin-4-one]
Human mGlu2 receptor
  Emax: 110%
  IC50: 2.45 nM
other
  melting point: 156.64 °C
rats
  ED50: > 0.63 mg/kg

## Cc1cc(-c2cnn3c2C(=O)N(c2ccc(C(F)(F)F)c(Cl)c2)C[C@@H]3C)no1 [Co. No. 8, (7S)-5-[3-chloro-4-(trifluoromethyl)phenyl]-7-methyl-3-(5-methylisoxazol-3-yl)-6,7-dihydropyrazolo[1,5-a]pyrazin-4-one]
Human mGlu2 receptor
  Emax: 110%
  IC50: 16.2 nM

## C[C@H]1CN(c2ccc(C(F)(F)F)c(Cl)c2)C(=O)c2c(-c3cc(-c4ccccn4)on3)cnn21 [Co. No. 10, (7S)-5-[3-chloro-4-(trifluoromethyl)phenyl]-7-methyl-3-[5-(2-pyridyl)isoxazol-3-yl]-6,7-dihydropyrazolo[1,5-a]pyrazin-4-one]
Human mGlu2 receptor
  Emax: 106%
  IC50: 4.79 nM
other
  melting point: 188.25 °C
rats
  ED50: > 0.63 mg/kg

## CNc1cc(-c2cc(-c3cnn4c3C(=O)N(c3ccc(C(F)(F)F)cc3)C[C@@H]4C)no2)ccn1 [Co. No. 25, (7S)-7-methyl-3-[5-[2-(methylamino)-4-pyridyl]isoxazol-3-yl]-5-[4-(trifluoromethyl)phenyl]-6,7-dihydropyrazolo[1,5-a]pyrazin-4-one]
Human mGlu2 receptor
  Emax: 110%
  IC50: 25.1 nM
other
  melting point: 208.39 °C

## C[C@H]1CN(c2ccc(C(F)(F)F)cc2)C(=O)c2c(-c3cc(-c4ccccc4)on3)cnn21 [Co. No. 3, (7S)-7-methyl-3-(5-phenylisoxazol-3-yl)-5-[4-(trifluoromethyl)phenyl]-6,7-dihydropyrazolo[1,5-a]pyrazin-4-one]
Human mGlu2 receptor
  Emax: 103%
  IC50: 9.12 nM
other
  melting point: 194.25 °C

## C[C@H]1CN(c2ccc(C(F)(F)F)c(Cl)c2)C(=O)c2c(-c3cc(-c4cncc(F)c4)on3)cnn21 [Co. No. 21, (7S)-5-[3-chloro-4-(trifluoromethyl)phenyl]-3-[5-(5-fluoro-3-pyridyl)isoxazol-3-yl]-7-methyl-6,7-dihydropyrazolo[1,5-a]pyrazin-4-one]
Human mGlu2 receptor
  Emax: 103%
  IC50: 6.61 nM
other
  melting point: 197.03 °C
rats
  ED50: > 0.63 mg/kg

## Cc1cc(-c2cc(-c3cnn4c3C(=O)N(c3ccc(C(F)(F)F)cc3)C[C@@H]4C)no2)ccn1 [Co. No. 6, (7S)-7-methyl-3-[5-(2-methyl-4-pyridyl)isoxazol-3-yl]-5-[4-(trifluoromethyl)phenyl]-6,7-dihydropyrazolo[1,5-a]pyrazin-4-one]
Human mGlu2 receptor
  Emax: 114%
  IC50: 40.7 nM
other
  melting point: 118.52 °C

## CN1[C@@H]2C[C@@H](OC(=O)[C@H](CO)c3ccccc3)C[C@H]1[C@@H]1O[C@@H]12 [Scopolamine, scopolamine, reference compound]
rats; [1]
  Median total distance travelled: 7246 cm
  rats travelling >1500 cm: 100%
  rats travelling >4400 cm: 95.8%

## C[C@H]1CN(c2ccc(C(F)(F)F)cc2)C(=O)c2c(-c3cc(-c4cncc(F)c4)on3)cnn21 [Co. No. 19, (7S)-3-[5-(5-fluoro-3-pyridyl)isoxazol-3-yl]-7-methyl-5-[4-(trifluoromethyl)phenyl]-6,7-dihydropyrazolo[1,5-a]pyrazin-4-one]
Human mGlu2 receptor
  Emax: 101%
  IC50: 18.6 nM
other
  melting point: 176.27 °C

## Cc1cc(N2C[C@H](C)n3ncc(-c4cc(-c5cnccn5)on4)c3C2=O)ccc1C(F)(F)F [Co. No. 17, (7S)-7-methyl-5-[3-methyl-4-(trifluoromethyl)phenyl]-3-(5-pyrazin-2-ylisoxazol-3-yl)-6,7-dihydropyrazolo[1,5-a]pyrazin-4-one]
Human mGlu2 receptor
  Emax: 106%
  IC50: 17.4 nM
other
  melting point: 181.57 °C

## C[C@H]1CN(c2ccc(C(F)(F)F)c(Cl)c2)C(=O)c2c(-c3cc(-c4cnccn4)on3)cnn21 [Co. No. 13, (7S)-5-[3-chloro-4-(trifluoromethyl)phenyl]-7-methyl-3-(5-pyrazin-2-ylisoxazol-3-yl)-6,7-dihydropyrazolo[1,5-a]pyrazin-4-one]
Human mGlu2 receptor
  Emax: 106%
  IC50: 6.03 nM
other
  melting point: 205.91 °C

## Cc1cncc(-c2cc(-c3cnn4c3C(=O)N(c3ccc(C(F)(F)F)c(Cl)c3)C[C@@H]4C)no2)c1 [Co. No. 12, (7S)-5-[3-chloro-4-(trifluoromethyl)phenyl]-7-methyl-3-[5-(5-methyl-3-pyridyl)isoxazol-3-yl]-6,7-dihydropyrazolo[1,5-a]pyrazin-4-one]
Human mGlu2 receptor
  Emax: 108%
  IC50: 6.17 nM
other
  melting point: 168.58 °C
rats
  ED50: > 0.63 mg/kg

## Cc1ccncc1-c1cc(-c2cnn3c2C(=O)N(c2ccc(C(F)(F)F)c(Cl)c2)C[C@@H]3C)no1 [Co. No. 20, (7S)-5-[3-chloro-4-(trifluoromethyl)phenyl]-7-methyl-3-[5-(4-methyl-3-pyridyl)isoxazol-3-yl]-6,7-dihydropyrazolo[1,5-a]pyrazin-4-one]
Human mGlu2 receptor
  Emax: 113%
  IC50: 1.41 nM
other
  melting point: 149.63 °C
rats
  ED50: 0.51 mg/kg

## Cc1cc(-c2cnn3c2C(=O)N(c2ccc(C(F)(F)F)cc2)C[C@@H]3C)no1 [Co. No. 1, (7S)-7-Methyl-3-(5-methylisoxazol-3-yl)-5-[4-(trifluoromethyl)phenyl]-6,7-dihydropyrazolo[1,5-a]pyrazin-4-one]
Human mGlu2 receptor
  Emax: 103%
  IC50: 69.2 nM
other
  melting point: 165.04 °C

## CNc1ccc(-c2cc(-c3cnn4c3C(=O)N(c3ccc(C(F)(F)F)cc3)C[C@@H]4C)no2)cn1 [Co. No. 26, (7S)-7-methyl-3-[5-[6-(methylamino)-3-pyridyl]isoxazol-3-yl]-5-[4-(trifluoromethyl)phenyl]-6,7-dihydropyrazolo[1,5-a]pyrazin-4-one]
Human mGlu2 receptor
  Emax: 112%
  IC50: 6.17 nM
other
  melting point: 173.7 °C

## C[C@H]1CN(c2ccc(C(F)(F)F)c(Cl)c2)C(=O)c2c(-c3cc(-c4ccc(N)nc4)on3)cnn21 [Co. No. 9, (7S)-3-[5-(6-amino-3-pyridyl)isoxazol-3-yl]-5-[3-chloro-4-(trifluoromethyl)phenyl]-7-methyl-6,7-dihydropyrazolo[1,5-a]pyrazin-4-one]
Human mGlu2 receptor
  Emax: 113%
  IC50: 1.15 nM

## Cc1cncc(-c2cc(-c3cnn4c3C(=O)N(c3ccc(C(F)(F)F)cc3)C[C@@H]4C)no2)c1 [Co. No. 7, (7S)-7-methyl-3-[5-(5-methyl-3-pyridyl)isoxazol-3-yl]-5-[4-(trifluoromethyl)phenyl]-6,7-dihydropyrazolo[1,5-a]pyrazin-4-one]
Human mGlu2 receptor
  Emax: 106%
  IC50: 27.5 nM
other
  melting point: 208.95 °C

## C[C@H]1CN(c2ccc(C(F)(F)F)cc2)C(=O)c2c(-c3cc(-c4cccnc4N)on3)cnn21 [Co. No. 24, (7S)-3-[5-(2-amino-3-pyridyl)isoxazol-3-yl]-7-methyl-5-[4-(trifluoromethyl)phenyl]-6,7-dihydropyrazolo[1,5-a]pyrazin-4-one]
Human mGlu2 receptor
  Emax: 106%
  IC50: 6.03 nM
other
  melting point: 189.85 °C

## Cc1cc(N2C[C@H](C)n3ncc(-c4cc(-c5cncc(F)c5)on4)c3C2=O)ccc1C(F)(F)F [Co. No. 23, (7S)-3-[5-(5-fluoro-3-pyridyl)isoxazol-3-yl]-7-methyl-5-[3-methyl-4-(trifluoromethyl)phenyl]-6,7-dihydropyrazolo[1,5-a]pyrazin-4-one]
Human mGlu2 receptor
  Emax: 105%
  IC50: 20.9 nM
other
  melting point: 168.93 °C

## Cc1cc(N2C[C@H](C)n3ncc(-c4cc(-c5ccccn5)on4)c3C2=O)ccc1C(F)(F)F [Co. No. 14, (7S)-7-methyl-5-[3-methyl-4-(trifluoromethyl)phenyl]-3-[5-(2-pyridyl)isoxazol-3-yl]-6,7-dihydropyrazolo[1,5-a]pyrazin-4-one]
Human mGlu2 receptor
  Emax: 107%
  IC50: 14.8 nM
other
  melting point: 155.07 °C

## C[C@H]1CN(c2ccc(C(F)(F)F)cc2)C(=O)c2c(-c3cc(-c4ccccn4)on3)cnn21 [Co. No. 4, (7S)-7-methyl-3-[5-(2-pyridyl)isoxazol-3-yl]-5-[4-(trifluoromethyl)phenyl]-6,7-dihydropyrazolo[1,5-a]pyrazin-4-one]
Human mGlu2 receptor
  Emax: 106%
  IC50: 40.7 nM
other
  melting point: 193.65 °C
